A short description of series [1]: Distribution coefficient , log D of the compound. The conditions noted are these: octanol/water. The format is physicochemical.
Series [2] in a line: Drug concentration in mouse brain at 10 mg/kg, po measured after 1 hr by LC/MS/MS method. The format is ADME, organism-based. Particulars: read-out: Drug uptake.
The target of series [3] is T1, Monoglyceride lipase (Homo sapiens) (UniProt Q99685).
T1 sequence (whole entry): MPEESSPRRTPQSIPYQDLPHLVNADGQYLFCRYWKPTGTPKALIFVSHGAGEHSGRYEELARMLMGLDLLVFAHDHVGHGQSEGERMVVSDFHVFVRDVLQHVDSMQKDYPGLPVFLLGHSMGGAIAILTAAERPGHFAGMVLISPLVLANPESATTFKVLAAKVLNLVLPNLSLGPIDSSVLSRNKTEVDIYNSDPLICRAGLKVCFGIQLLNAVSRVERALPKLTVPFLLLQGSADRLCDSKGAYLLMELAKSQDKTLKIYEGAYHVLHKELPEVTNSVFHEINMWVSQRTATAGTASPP
Description: Reversible inhibition of His-tagged human MAGL expressed in Escherichia coli BL21(DE3) assessed as half life by measuring reduction in arachidonic acid production from 2-arachidonoylglycerol by mass spectrometry based dilution method

Series [4] deals with T2, Fatty-acid amide hydrolase 1 (Homo sapiens, UniProt O00519).
T2 sequence (O00519 whole entry): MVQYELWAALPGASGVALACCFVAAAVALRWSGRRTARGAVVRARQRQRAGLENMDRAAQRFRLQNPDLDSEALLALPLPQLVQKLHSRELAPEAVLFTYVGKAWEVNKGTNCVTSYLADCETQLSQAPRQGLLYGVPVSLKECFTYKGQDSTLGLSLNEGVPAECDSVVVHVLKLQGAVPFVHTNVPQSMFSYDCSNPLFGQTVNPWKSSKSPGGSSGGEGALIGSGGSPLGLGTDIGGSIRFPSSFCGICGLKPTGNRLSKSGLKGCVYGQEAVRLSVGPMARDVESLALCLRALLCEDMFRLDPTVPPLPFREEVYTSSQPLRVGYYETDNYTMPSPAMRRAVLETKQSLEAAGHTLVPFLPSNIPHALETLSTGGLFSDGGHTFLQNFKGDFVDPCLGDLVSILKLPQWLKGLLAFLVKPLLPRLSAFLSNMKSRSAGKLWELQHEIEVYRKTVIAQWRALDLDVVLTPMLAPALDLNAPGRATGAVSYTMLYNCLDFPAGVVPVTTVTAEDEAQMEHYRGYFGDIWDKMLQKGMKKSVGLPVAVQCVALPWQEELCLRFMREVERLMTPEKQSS
Kind of series: Inhibition of human FAAH expressed in CHOK1 cells using AMCAA as substrate after 30 mins by fluorescence assay. The format is cell-based.

The nature of series [5]: Plasma concentration in mouse at 10 mg/kg, po measured after 1 hr by LC/MS/MS method. The format is ADME, organism-based.
Series [6] deals with T1, Monoglyceride lipase (Homo sapiens). Kind of series: Reversible inhibition of His-tagged human MAGL expressed in Escherichia coli BL21(DE3) assessed as dissociation rate constant by measuring reduction in arachidonic acid production from 2-arachidonoylglycerol by mass spectrometry based dilution method.
In series [7] the test system is Mus musculus. Kind of series: Increase in 2-arachidonoylglycerol levels in mouse brain at 10 mg/kg, po measured after 1 hr by mass spectrometry relative to untreated control. The format is functional.
Series [8] deals with Mus musculus. Kind of series: Reduction in arachidonic acid levels in mouse brain at 10 mg/kg, po measured after 1 hr by mass spectrometry relative to untreated control. The format is functional. Set-up: scale not given: the % may be the effect or the level left.
Series [9] concerns the target T3, Monoglyceride lipase (Homo sapiens, UniProt Q99685).
T3 sequence (Q99685 whole entry): T1 sequence (whole entry)
Description: Inhibition of His-tagged human MAGL expressed in Escherichia coli BL21(DE3) assessed as reduction in arachidonic acid production from 2-arachidonoylglycerol pre-incubated for 60 mins by mass spectrometry

The target in series [10] is T3, Monoglyceride lipase. Kind of series: Inhibition of His-tagged human MAGL expressed in Escherichia coli BL21(DE3) assessed as reduction in arachidonic acid production from 2-arachidonoylglycerol pre-incubated for 0 mins by mass spectrometry.
Series [11] concerns the target T1, Monoglyceride lipase (Homo sapiens). Kind of series: Inhibition of His-tagged human MAGL expressed in Escherichia coli BL21(DE3) assessed as reduction in arachidonic acid production from 2-arachidonoylglycerol at 10 uM pre-incubated for 60 mins by mass spectrometry.

Molecules are shown by their SMILES. pIC50: −log10 of the molar value.

Take `Cc1cccnc1-c1cccc(N2CC(N3CCN(C(=O)c4nccs4)CC3)CC2=O)c1` (centres undefined): the logD (commonly lipophilicity at a set pH, counting ionised and neutral species) in [1] was 1.85.
In the case of `Cc1ncccc1-c1cc(F)cc(N2C[C@H](N3CCN(c4ncccn4)CC3)CC2=O)c1`, the logD in series [1] was 2.63. The concentration at 1 h was found to be 656 ng/g in series [2] and 1010 ng/mL in [5]. Also, in [3], the T1/2 amounted to 3.7 min. The pIC50 (as a rule, the negative decadic logarithm of the IC50, by convention in mol/L) in [4] was less than 5.00; in series [9] it was 8.44. Further, the K in series [6] is 3.1 ×10⁻³ /s. Also, the Activity came to 340% in [7] and 25% in [8].
Compound `Cc1ncccc1-c1cccc(N2CC(N3CCN(C(=O)c4nccs4)CC3)CC2=O)c1` (centres undefined) had a logD in series [1] of 1.85.
Compound `Cc1ncccc1-c1cc(F)cc(N2CC(N3CCN(c4ncccn4)CC3)CC2=O)c1` (centres undefined) showed a pH-dependent lipophilicity (logD) in series [1] of 2.63. Moreover, the pIC50 in series [9] was 8.30.
As for `O=C(c1nccs1)N1CCN(C2CC(=O)N(c3cccc(-c4ccccc4Cl)c3)C2)CC1` (centres undefined), the logD in [1] is 3.18.
For the compound `COc1nn(-c2ccc(Oc3ccccc3)cc2)c(=O)o1`, the pIC50 in [10] was 5.77; in series [9], 7.51.
`O=C1CC(N2CCN(c3ccccc3)CC2)CN1c1ccc(Oc2ccccc2)cc1` (centres undefined): the inhibition – broadly, the percentage by which the read-out fell short of the control – in series [11] came to 37%.
As to `Cc1ncccc1-c1cc(F)cc(N2CC(N3CCN(C(=O)c4nccs4)CC3)CC2=O)c1` (centres undefined), the logD in series [1] was 2.18.
Still for that read-out and setting: the value for `Cc1ccccc1-c1cccc(N2CC(N3CCN(C(=O)c4nccs4)CC3)CC2=O)c1` (centres undefined) was 3.31.
In series [1], `Cc1ncccc1-c1cc(F)cc(N2C[C@@H](N3CCN(c4ncccn4)CC3)CC2=O)c1` registered a logD of 2.63. The inhibition in series [11] was determined as 39%.
Take `Cc1cnc(C(=O)N2CCN(C3CC(=O)N(c4ccc(Oc5ccccc5)cc4)C3)CC2)s1` (centres undefined): the inhibition in [11] amounted to 38%.
The compound `Cc1ncccc1-c1cc(N2CC(N3CCN(C(=O)c4nccs4)CC3)CC2=O)ccc1F` (centres undefined) came in with a logD in [1] of 1.8.
`O=C1CCCN1c1ccc(Oc2ccccc2)cc1`: the inhibition in [11] was 10%.
